Experimental data as given in patent publication US20110028447A1, “INDAZOLE DERIVATIVES” (Pfizer Inc., priority 2008, published 2011).
Where two headings read alike, the source gives them in different places.

Experiments:
human CB1 receptor [1] = target: T1, human CB1 receptor (Homo sapiens, UniProt P21554); test: [35S] GTPγS binding on membranes of CHO cells expressing the human CB1 receptor (agonism); format: biochemical; design: expressed in transfected cells; membrane preparation
Protocol: Membrane preparation: CHO cells expressing the human CB1 receptor were grown to 80% confluence in Ham's F-12 Nutrient Medium (Invitrogen) containing 10% fetal bovine serum (Invitrogen), 1% pen/strep (Invitogen), 1% Nonessential amino acids (Invitrogen) and 500 μg/ml G418 (Invitrogen). Cells were released from flasks using Cell Dissociation Buffer (Invitrogen). Cells were pelleted by centrifugation at 500×G for 5 minutes. Membranes were prepared by resuspending cells in ice cold Assay Buffer (25 mM Tris pH 7.4, 5 mM EDTA, 5 mM EGTA, Complete Protease Inhibitor (Roche)). Cells were lysed with 12 strokes of a dounce homogenizer. Unlysed cells were pelleted by centrifugation at 500×G for 5 minutes. Membranes were pelleted by centrifugation at 25,000×G for 30 minutes. Membranes were resuspended in TEE, dounced 12 strokes, and pelleted a second time at 25,000×G for 30 minutes. Membrane pellet was resuspended in 50 mM Tris pH 7.4, 100 mM NaCl, 3 mM MgCl2, 0.2 mM EGTA, Complete Protease Inhibitor (Roche). Protein concentration was determined using the Micro-BCA Protein Assay Kit (Pierce) using BSA as a standard. Membranes were frozen and stored at −80 degrees Celsius until use.
GTPγS Binding: 40 μl of test compound was incubated with 20 μl of [^35S] GTPγS (Perkin Elmer) (1250 Ci/millimole) and 140 μl of membrane homogenate (5 μg/well) in polypropylene 96-well plates (Corning). Final reaction conditions were 50 mM Tris pH 7.4, 100 mM NaCl, 3 mM MgCl2, 0.2 mM EGTA, 0.04% BSA. After incubation at 37 degrees Celsius for 45 minutes reactions were harvested by vacuum filtration through Unifilter GF/B-96 filters (Perkin Elmer) using a FilterMate Plate Harvester (Perkin Elmer). Filters were rinsed 4 times with ice cold 50 mM Tris pH 7.4, 3 mM MgCl2, 0.2 mM EGTA and dried at 50 degrees Celsius for at least 30 minutes. 40 μl of Microscint-20 (Perkin Elmer) was added per well, and plates were counted using a Top-Count Microplate Scintillation Counter (Perkin Elmer). Binding data were analyzed and EC50 values were calculated using Graph Pad Prism 4.0 Software.

human CB1 receptor [2] = target: T1, human CB1 receptor; test: Human CB1 receptor binding, [3H] CP-55,940 displacement on HEK cell membranes; design: expressed in transfected cells; host or cells: HEK cells, doxycycline-induced; membrane preparation
How it was run: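 Radioligand displacement: [3H] CP-55,940 at […] final, 1 μg membrane protein per well from HEK cells with tetracycline-inducible human CB1, 60 min at room temperature, pH 7.4 Tris/NaCl/MgCl2/EGTA/BSA buffer. 50 μM WIN-55,212-2 set nonspecific binding; bound label filtered, counted, and fitted for EC50 and Ki values.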

[3] = human CB1, CHO cell membranes, read-out: GTPγS EC50
[4] = GTPγS EC50, human CB1, CHO cell membranes

T1 sequence (P21554 whole entry): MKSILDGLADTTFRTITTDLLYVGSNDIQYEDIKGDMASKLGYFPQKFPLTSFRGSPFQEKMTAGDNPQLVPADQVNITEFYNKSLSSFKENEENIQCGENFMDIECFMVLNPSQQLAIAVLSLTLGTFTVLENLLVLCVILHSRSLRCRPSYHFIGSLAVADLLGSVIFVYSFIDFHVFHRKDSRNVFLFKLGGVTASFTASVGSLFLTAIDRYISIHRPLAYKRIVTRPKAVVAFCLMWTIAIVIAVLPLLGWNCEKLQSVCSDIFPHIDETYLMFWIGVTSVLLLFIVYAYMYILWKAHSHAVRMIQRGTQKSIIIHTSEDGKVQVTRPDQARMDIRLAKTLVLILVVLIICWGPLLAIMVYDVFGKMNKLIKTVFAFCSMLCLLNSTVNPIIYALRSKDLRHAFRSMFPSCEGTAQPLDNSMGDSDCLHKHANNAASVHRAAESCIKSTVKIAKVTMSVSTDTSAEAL

SMILES	EC50 (human CB1 receptor [1]; [3]) [nM]	Ki (human CB1 receptor [2]; read-out: CB1 Ki) [nM]	EC50 (human CB1 receptor [1]; [4]) [nM]	Ki (human CB1 receptor [2]; CB1 Ki) [nM]
CC(C)(C)[C@H](NC(=O)c1nn(Cc2ccc(F)cc2)c2ccccc12)C(=O)NCc1n[nH]c(C2CC2)n1 [Example 413]	52	14	–	–
CC(C)(C)[C@H](NC(=O)c1nn(Cc2ccc(F)cc2)c2ccccc12)C(=O)NCC#N [Example 270]	–	–	2.62	0.76
CCOC(=O)c1nnc(CNC(=O)[C@@H](NC(=O)c2nn(Cc3ccc(C#N)cc3)c3ccccc23)C(C)(C)C)o1 [Example 129]	106	12.6	–	–
Cc1nnc(CNC(=O)[C@@H](NC(=O)c2nn(Cc3ccc(F)cc3)c3c(F)c(F)ccc23)C(C)(C)C)o1 [Example 329]	–	–	8	2.93
CC(C)(C)[C@H](NC(=O)c1nn(Cc2ccc(C#N)cc2)c2c(F)cccc12)C(=O)NCC(N)=O [Example 110]	–	–	237	28.9
CC(C)(C)[C@H](NC(=O)c1nn(Cc2ccc(C#N)cc2)c2ccccc12)C(=O)NCCCO [Example 67]	–	–	827	46.5
CC(C)(C)C(NC(=O)c1nn(Cc2ccc(F)cc2)c2c(F)cccc12)C(=O)NCCCO (stereo not drawn) [Example 178]	–	–	1.61	0.56
CC(C)(C)[C@H](NC(=O)c1nn(Cc2ccc(F)cc2)c2ccccc12)C(=O)N1CCN(S(C)(=O)=O)CC1 [Example 244]	16.2	2.42	–	–
CC(C)(C)C(NC(=O)c1nn(Cc2ccc(F)cc2)c2ccccc12)c1nnc(NC(N)=O)o1 (stereo not drawn) [Example 118]	23.8	0.7	–	–
CCOC(=O)[C@H]1C[C@@H](NC(=O)[C@@H](NC(=O)c2nn(Cc3ccc(F)cc3)c3ccccc23)C(C)(C)C)C1 [Example 381]	26.9	15.3	–	–
CC(C)(C)[C@H](NC(=O)c1nn(Cc2ccccc2)c2ccc(Br)cc12)C(N)=O [Example 7, N-[(1S)-1-(aminocarbonyl)-2,2-dimethylpropyl]-1-benzyl-5-bromo-1H-indazole-3-carboxamide]	–	–	12.9	2.04
CC(C)(C)[C@H](NC(=O)c1nn(Cc2ccc(F)cc2)c2ccccc12)C(=O)NCCS(=O)(=O)NCC1CC1 [Example 400]	28.1	12.3	–	–
CC(C)(C)C(NC(=O)c1nn(Cc2ccc(F)cc2)c2c(Cl)cccc12)C(=O)NCCCO (stereo not drawn) [Example 184]	–	–	3.94	0.37
CC(C)(C)[C@H](NC(=O)c1nn(Cc2ccc(F)cc2)c2ccccc12)C(=O)N1CCC(F)C1 (stereo partly drawn) [Example 334]	–	–	9.41	1.72
CC(C)(C)[C@H](NC(=O)c1nn(Cc2ccc(F)cc2)c2ccccc12)C(=O)NC[C@H]1CCCC[C@H]1O [Example 250]	18.1	3.72	–	–
CC(C)(C)[C@H](NC(=O)c1nn(Cc2ccc(F)cc2)c2ccccc12)C(=O)NCCC#N [Example 271]	–	–	24.9	2.91
CC(C)(C)[C@H](NC(=O)c1nn(Cc2ccccc2)c2ccccc12)C(=O)NCCNS(=O)(=O)c1ccc(C#N)cc1 [Example 263]	100	8.36	–	–
CC(C)(C)C(NC(=O)c1nn(Cc2ccc(C#N)cc2F)c2ccccc12)c1nnc(NC(=O)C2CC2)o1 (stereo not drawn) [Example 88]	132	15.4	–	–
CC(C)(C)C(NC(=O)c1nn(Cc2ccc(F)cc2)c2ccccc12)C(=O)NCCNC(N)=O (stereo not drawn) [Example 85]	–	–	16.1	1.72
Cc1cc2c(C(=O)N[C@H](C(=O)NCCS(N)(=O)=O)C(C)(C)C)nn(Cc3ccc(F)cc3)c2cc1F [Example 512]	–	–	31.4	8.4
CC(C)(C)C(NC(=O)c1nn(Cc2ccc(C#N)cc2)c2ccc(F)cc12)C(=O)NCCO (stereo not drawn) [Example 166]	–	–	132	5.14
CC(C)(C)C(NC(=O)c1nn(Cc2ccc(F)cc2)c2c(Cl)cccc12)C(=O)NC1CC1 (stereo not drawn) [Example 182]	–	–	2.23	0.34

SMILES	EC50 (human CB1 receptor [1]; [3]) [nM]	Ki (human CB1 receptor [2]; read-out: CB1 Ki) [nM]	EC50 (human CB1 receptor [1]; [4]) [nM]	Ki (human CB1 receptor [2]; CB1 Ki) [nM]
CC(C)(C)[C@H](NC(=O)c1nn(Cc2ccc(C#N)cc2F)c2c(F)cccc12)C(=O)NC1CC1 [Example 373]	–	–	11.6	14.6
COc1cccc(CNC(=O)c2nn(Cc3ccccc3)c3ccccc23)c1 [Example 43]	–	–	101	27.1
CC(C)(C)C(NC(=O)c1nn(Cc2ccc(C#N)cc2)c2c(Cl)cccc12)C(=O)NCC(N)=O (stereo not drawn) [Example 201]	–	–	70.1	14.2
CC(C)[C@H](NC(=O)c1nn(Cc2ccc(F)cc2)c2ccccc12)C(N)=O [Example 2, N-[(1S)-1-(aminocarbonyl)-2-methylpropyl]-1-(4-fluorobenzyl)-1H-indazole-3-carboxamide]	–	–	23.2	0.9
Cc1cc2c(C(=O)N[C@H](C(N)=O)C(C)(C)C)nn(Cc3ccc(F)cc3)c2cc1F [Example 509]	–	–	7.55	0.45
CC(C)(C)[C@H](NC(=O)c1nn(Cc2ccc(F)cc2)c2ccccc12)C(=O)NCc1nc(-c2cnccn2)no1 [Example 418]	4.07	0.78	–	–
CC(C)(C)[C@H](NC(=O)c1nn(Cc2ccc(C#N)cc2)c2ccc(Cl)cc12)C(=O)NCCS(N)(=O)=O [Example 444]	–	–	–	> 400
CC(C)(C)[C@H](NC(=O)c1nn(Cc2cccc3ccccc23)c2ccccc12)C(=O)NC[C@H](O)CO [Example 276]	–	–	–	> 400
CC(C)(C)[C@H](NC(=O)c1nn(Cc2ccc(C#N)cc2)c2ccc(Cl)cc12)C(=O)NC1CCC1 [Example 449]	–	–	–	> 400
CC(C)(C)[C@H](NC(=O)c1nn(Cc2ccc(C#N)cc2)c2c(F)cccc12)C(=O)N[C@H](CO)c1ccccc1 [Example 216]	–	225	–	–
CC(C)(C)[C@H](NC(=O)c1nn(Cc2ccc(C#N)cc2F)c2ccccc12)C(=O)NCCC(N)=O [Example 471]	–	–	–	> 400
CC(C)(C)[C@H](NC(=O)c1nn(Cc2ccc(C#N)cc2)c2c(F)cccc12)C(=O)NCCS(C)(=O)=O [Example 221]	–	–	–	87.5
CC(C)(C)[C@H](NC(=O)c1nn(Cc2ccc(F)cc2)c2ccccc12)C(=O)NCC(=O)NC(CO)CO [Example 377]	–	22.5	–	–
CC(C)(C)[C@H](NC(=O)c1nn(Cc2ccc(C#N)cc2)c2ccccc12)C(=O)NCc1nnc(C(=O)NCCO)o1 [Example 461]	–	> 400	–	–
CC(C)(C)[C@H](NC(=O)c1nn(Cc2ccc(F)cc2)c2ccccc12)C(=O)NCC(=O)NCCCO [Example 521]	–	> 400	–	–
CCOC(=O)[C@H]1C[C@@H](NC(=O)[C@@H](NC(=O)c2nn(Cc3ccc(C#N)cc3)c3ccccc23)C(C)(C)C)C1 [Example 380]	–	> 400	–	–
CC(C)(C)[C@H](NC(=O)c1nn(Cc2ccc(F)cc2)c2ccccc12)C(=O)N[C@H]1CCCC[C@@H]1O [Example 252]	–	–	–	205
CC(C)(C)[C@H](NC(=O)c1nn(Cc2ccc(C#N)cc2)c2ccccc12)C(=O)NC1CCC1 [Example 406]	–	–	–	89.7
CC(C)(C)[C@H](NC(=O)c1nn(Cc2ccc(C#N)cc2)c2cc(F)ccc12)C(=O)N[C@H]1CNC(=O)C1 [Example 454]	–	–	–	> 400
CC(C)(C)[C@H](NC(=O)c1nn(Cc2ccc(C#N)cc2)c2ccccc12)C(=O)NC[C@@H](O)C(N)=O [Example 283]	–	–	–	> 400
CC(C)(C)[C@H](NC(=O)c1nn(Cc2ccc(C#N)cc2)c2ccc(Cl)cc12)C(=O)NCC(N)=O [Example 443]	–	–	–	> 400
CC(C)(C)[C@H](NC(=O)c1nn(Cc2ccc(F)cc2)c2ccccc12)C(=O)N[C@H]1CCC[C@H]1O [Example 280]	–	–	–	176
